Like-named read-outs stand apart in the source and are kept apart here. Marks after values point to notes of the source that are not given here.
How the values were obtained:
[1] = tested on: Middle cerebral artery occlusion (MCAO) models of SD rats; assay: Rat cerebral stroke model (MCAO), 28 days, pathological examination of brain; format: in vivo
Protocol: Middle cerebral artery occlusion (MCAO) models of SD rata were constructed by using the suture occlusion method. The rats were administered with the test compound for 28 consecutive days. The pharmacodynamic evaluation on the test compound for cerebral stroke was obtained based on general observation and neurobehavioral assessment. After anesthesia induction with 3.0% isoflurane in SD rats (240-280 g), the operation was performed and the right common carotid artery (CCA), and the right-side neck area was dissected to reveal the right common carotid artery (CCA), external carotid artery (ECA) and internal carotid artery (ICA). The ECA was ligated. The ICA was temporarily occluded. Sutures were threaded at both the proximal end and the distal end of CCA. The distal end was securely ligated, and a loosely tied knot was placed at the proximal end. A small incision was made on the CCA between these two sutures. A No. 4-0 suture was inserted through the incision of CCA and slowly and gently pushed into the ICA. The threading was stopped temporarily when reaching the artery clamp of ICA. The pre-ligation suture was further tightened. The artery clamp blocking the blood flow in the ICA was removed, allowing the suture occlusion to be advanced into the ICA until it entered the intracranial region. […] The insertion was stopped at the moment, and the time was recorded. The artery clamp on the CCA was removed and the incision was closed after no active bleeding was observed. The ischemic rats were placed at room temperature to keep their body temperature at 37° C., and anesthesia induction could be carried out 120 min later. The suture was slowly and gradually withdrawn when the rats were maintained under anesthesia, so that the proximal end of the suture returned to the ECA, thereby initiating reperfusion of the middle cerebral artery. Animals received the designated dosage immediately (within 10 min) after reperfusion. This dosing regimen continued once daily for a duration of 28 days, with the day of operation being defined as D1 (Day 1). A total of 5 groups were set, sham surgery group, model control group, NBP group (60 mg/kg, p.o., q.d), compound (I) low dose p.o. group (6 mg/kg, p.o., q.d), and a compound (I) high dose p.o. group (20 mg/kg, p.o., q.d). During administration, all animals were subjected to grid walking tests (D7, D14, D21, and D28, 4 times in total) and novel object recognition tests (adaptation for novel object recognition on D26, test on D27). After the completion of the 28-day dosing period, all surviving animals in the study were euthanized, and their brains were rapidly collected for pathological analysis. (3) Pathological examination: 1) the restoration range: samples with a restoration area range of >30% are considered to be good in recovery, while samples with a restoration area range of ≤30% are considered to be poor in recovery. […] In addition, for the compound (I) low dose group and the compound (I) high dose group, the proportion values of animal samples having >10 erythrocyte-containing blood vessels in the restoration area were 100% and 92.3%, respectively, both being no less than 90%.

[2] = Distribution in brain tissues of rats (plasma and brain concentration); format: in vivo; settings: rat, po, male SD rats, 20 mg/kg p.o.
Protocol: Plasma and brain tissue samples were collected from the animals at 0.5 h, 1 h, 4 h, and 24 h after administration. Collection of plasma: 0.2 mL of whole blood was collected by using an EP tube containing EDTA-K2 and centrifuged at 3500 g for 10 min, and then the upper plasma was collected and stored at −20° C. Collection of brain tissue: after the animals were euthanized, a proper amount of brain tissues were weighed out and homogenized with methanol in water (80%, w/v) at a ratio of 1:4. The concentration of compound in the plasma and brain tissue samples was quantified by liquid chromatography-tandem mass spectrometry (LC-MS/MS).

[3] = Pharmacokinetic test in rats; format: in vivo, rat; settings: male SD rats
Protocol: Male SD rats (weighing 180-260 g) were administered with compound (I) at a dose of 1.0 mg/kg by tail vein injection and at a dose of 10.0 mg/kg orally. Each group consisted of 3 animals. The solvent for administration was a solution of 5% DMSO+5% polyethoxylated castor oil (Cremophor EL) in normal saline. The rats were fasted for about 12 h before administration and were given ad libitum access to food 4 h after administration, and water was available all the time. Blood was collected from the orbit at about 0.2 mL before administration and 5 min, 15 min, 30 min, 1 h, 2 h, 4 h, 6 h, 8 h, and 24 h after administration. The samples were placed in EDTA-K2 anticoagulant EP tubes in an ice bath, and subjected to low-speed centrifugation at 4° C. and 3500 rpm for 10 min to isolate plasma, which was then stored at −20° C. before analysis. The concentration of compound (I) in the plasma was quantified by liquid chromatography-tandem mass spectrometry (LC-MS/MS). Pharmacokinetic parameters were calculated from the analysis results of the samples using WinNonlin software.

[4] = tested on: Middle cerebral artery occlusion (MCAO) models of SD rats; assay: Rat cerebral stroke model (MCAO), 28 days, grid walking test; format: in vivo; settings: 60 mg/kg p.o. q.d, Mean ± SD
Protocol: (§1) Middle cerebral artery occlusion (MCAO) models of SD rata were constructed by using the suture occlusion method. The rats were administered with the test compound for 28 consecutive days. The pharmacodynamic evaluation on the test compound for cerebral stroke was obtained based on general observation and neurobehavioral assessment.
(§2) After anesthesia induction with 3.0% isoflurane in SD rats (240-280 g), the operation was performed and the right common carotid artery (CCA), and the right-side neck area was dissected to reveal the right common carotid artery (CCA), external carotid artery (ECA) and internal carotid artery (ICA). The ECA was ligated. The ICA was temporarily occluded. Sutures were threaded at both the proximal end and the distal end of CCA. The distal end was securely ligated, and a loosely tied knot was placed at the proximal end. A small incision was made on the CCA between these two sutures. A No. 4-0 suture was inserted through the incision of CCA and slowly and gently pushed into the ICA. The threading was stopped temporarily when reaching the artery clamp of ICA. The pre-ligation suture was further tightened. The artery clamp blocking the blood flow in the ICA was removed, allowing the suture occlusion to be advanced into the ICA until it entered the intracranial region. […] The insertion was stopped at the moment, and the time was recorded. The artery clamp on the CCA was removed and the incision was closed after no active bleeding was observed. The ischemic rats were placed at room temperature to keep their body temperature at 37° C., and anesthesia induction could be carried out 120 min later. The suture was slowly and gradually withdrawn when the rats were maintained under anesthesia, so that the proximal end of the suture returned to the ECA, thereby initiating reperfusion of the middle cerebral artery. Animals received the designated dosage immediately (within 10 min) after reperfusion. This dosing regimen continued once daily for a duration of 28 days, with the day of operation being defined as D1 (Day 1). A total of 5 groups were set, sham surgery group, model control group, NBP group (60 mg/kg, p.o., q.d), compound (I) low dose p.o. group (6 mg/kg, p.o., q.d), and a compound (I) high dose p.o. group (20 mg/kg, p.o., q.d). During administration, all animals were subjected to grid walking tests (D7, D14, D21, and D28, 4 times in total) and novel object recognition tests (adaptation for novel object recognition on D26, test on D27). After the completion of the 28-day dosing period, all surviving animals in the study were euthanized, and their brains were rapidly collected for pathological analysis.

[5] = rats, value in literature, cited from earlier work
[6] = tested on: Middle cerebral artery occlusion (MCAO) models of SD rats; assay: Rat cerebral stroke model (MCAO), 28 days, novel object recognition test; format: in vivo; settings: 60 mg/kg p.o. q.d, Mean ± SD
Protocol: as §1, §2

[7] = Pharmacokinetics of 3-n-butylphthalide in rat plasma (value in literature); format: in vivo; settings: rats, p.o. 60 mg/kg vs i.v. 10 mg/kg; calculated based on the literature value of AUC0-inf
[8] = brain, read-out: Measured value in brain tissues Concentration
[9] = plasma, read-out: Measured value in plasma Concentration

With `CCC/C(O)=C1/C(=O)Oc2ccccc21` [Compound (I), (Z)-3-(1-hydroxybutylidene)benzofuran-2 (3H)-one] the “Number of animals with >10 erythrocyte-containing blood vessels” value ([1]; high dose 20 mg/kg p.o. q.d 28 days, N = 13, infarction restoration area, 20 mg/kg) was 12**, the “Number of animals with >10 erythrocyte-containing blood vessels” value ([1]; high dose 20 mg/kg p.o. q.d 28 days, N = 13, infarction restoration area, listed as compound (I), 20 mg/kg) was 12 and the “Number of animals with >10 erythrocyte-containing blood vessels” value ([1]; low dose 6 mg/kg p.o. q.d 28 days, N = 12, infarction restoration area, 6 mg/kg) was 12**. For the same compound, the “Number of animals with >10 erythrocyte-containing blood vessels” value ([1]; low dose 6 mg/kg p.o. q.d 28 days, N = 12, infarction restoration area, listed as compound (I), 6 mg/kg) was 12, the concentration at 0.5 h [2, 8] was 8730 ng/g and the concentration at 1 h [2, 8] was 5730 ng/g. It also gave a concentration at 4 h [2, 8] of 5030 ng/g, a concentration at 24 h [2, 8] of 285 ng/g and a concentration at 0.5 h [2, 9] of 241000 ng/mL. It also gave a concentration at 1 h [2, 9] of 192000 ng/mL, a concentration at 4 h [2, 9] of 182000 ng/mL and a concentration at 24 h [2, 9] of 23500 ng/mL. For the same compound, the F ([3]; p.o. 10 mg/kg vs i.v. 1 mg/kg) was 144.2%, the AUC0-inf ([3]; rat, iv, i.v. 1 mg/kg, plasma) was 59200 ng·h/mL and the AUC0-t ([3]; rat, iv, i.v. 1 mg/kg, plasma) was 52500 ng·h/mL. The MRT inf ([3]; rat, iv, i.v. 1 mg/kg, plasma) was 9.8 h, the half-life ([3]; rat, iv, i.v. 1 mg/kg, plasma) was 7.5 h and the AUC0-inf ([3]; rat, po, p.o. 10 mg/kg, plasma) was 854000 ng·h/mL. The AUC0-t ([3]; rat, po, p.o. 10 mg/kg, plasma) was 703000 ng·h/mL, the Cmax ([3]; rat, po, p.o. 10 mg/kg, plasma) was 56500 ng/mL and the MRT inf ([3]; rat, po, p.o. 10 mg/kg, plasma) was 13.2 h. For the same compound, the Tmax ([3]; rat, po, p.o. 10 mg/kg, plasma) was 0.5 h and the half-life ([3]; rat, po, p.o. 10 mg/kg, plasma) was 9.6 h.

For `CCCCC1OC(=O)c2ccccc21` (stereo not drawn) [NBP, 3-n-butylphthalide], the “Number of samples Restoration area > 30%” value ([1]; 60 mg/kg p.o. q.d 28 days, N = 14, model control 3 of 17) was 3, the “Number of samples Restoration area ≤ 30%” value ([1]; 60 mg/kg p.o. q.d 28 days, N = 14, model control 14 of 17) was 11 and the “Number of animals with ≤10 erythrocyte-containing blood vessels” value ([1]; 60 mg/kg p.o. q.d 28 days, N = 15, infarction restoration area, model control 10 of 17) was 1. The “Proportion of samples having >10 erythrocyte-containing blood vessels” value ([1]; 60 mg/kg p.o. q.d 28 days, model control 41.2) was 93.3%, the “Proportion of samples showing good recovery” value ([1]; 60 mg/kg p.o. q.d 28 days, restoration area >30%, model control 17.6) was 21.4% and the Misstep frequency ([4]; 1 W after operation, model control 7.24 ± 3.59) was 7.37±3.03 times. It also gave a Misstep frequency ([4]; 2 W after operation, model control 5.35 ± 4.40) of 8.10 ± 2.97 times, a Misstep frequency ([4]; 3 W after operation, model control 4.09 ± 3.140) of 6.27 ± 2.890 times and a Misstep frequency ([4]; 4 W after operation, model control 1.59 ± 0.84) of 2.10 ± 1.46 times. The concentration at 0.5 h [2, 8] was 28.5 ng/g, the concentration at 1 h [2, 8] was 22.8 ng/g and the concentration at 4 h [2, 8] was 10.2 ng/g. It also gave a concentration at 0.5 h [2, 9] of 26 ng/mL, a concentration at 1 h [2, 9] of 19.1 ng/mL and a concentration at 4 h [2, 9] of 7.2 ng/mL. For the same compound, the concentration at 24 h [2, 9] was 1.7 ng/mL, the AUC0-inf ([5]; i.v. 10 mg/kg) was 8620.0 ng·h/mL and the AUC0-t ([5]; i.v. 10 mg/kg) was 7230.0 ng·h/mL. The MRTinf ([5]; i.v. 10 mg/kg) was 2.4 h, the T1/2 ([5]; i.v. 10 mg/kg) was 2.2 h and the AUC0-inf ([5]; p.o. 60 mg/kg) was 8560.0 ng·h/mL. For the same compound, the AUC0-t ([5]; p.o. 60 mg/kg) was 7110.0 ng·h/mL, the Cmax ([5]; p.o. 60 mg/kg) was 2900.0 ng/mL and the MRTinf ([5]; p.o. 60 mg/kg) was 3.8 h. For the same compound, the T1/2 ([5]; p.o. 60 mg/kg) was 2.83 h, the Tmax ([5]; p.o. 60 mg/kg) was 0.7 h and the “Sniffing time Familiar object” value ([6]; model control 2.70 ± 2.22) was 1.60 ± 1.01 S. The “Sniffing time Novel object” value ([6]; model control 3.82 ± 3.40) was 4.94 ± 3.60 S, the “Recognition index Familiar object (FRI)” value ([6]; model control 45.19 ± 21.94) was 29.03 ± 22.57% and the “Recognition index Novel object (NRI)” value ([6]; model control 54.81 ± 21.94) was 70.97±22.57%. The F [7] was 16.6* %.

— patent US20240360094A1, “COMPOUND FOR TREATING DISEASES RELATED TO CEREBRAL ISCHEMIC INJURY” (JIANGSU CHIA TAI FENGHAI PHARMACEUTICAL CO., LTD., priority 2021, published 2024)
